According to US20260285850A1, “SUBSTITUTED OXAZOLIDINONES AND IMIDAZOLINONES AS HERBICIDES” (FMC CORPORATION, priority 2023, published 2026):

Columns and labels:
Type in all cases: in vivo
rice (Oryza sativa) = assay: Test B flooded paddy test, visual plant response rating 0-100; conditions: 250 g ai/ha, Flood, applied to paddy water, evaluated after 13 days
How it was run: (§1)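 Visual evaluation after 13 days. Water-applied treatment, 3 cm flood depth held constant, plants at 2-leaf stage at treatment.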

[1] = tested on: ducksalad (Heteranthera limosa); assay: as above; conditions: 250 g ai/ha, Flood, applied to paddy water, evaluated after 13 days
How it was run: as §1

[2] = tested on: barnyardgrass (Echinochloa crusgalli); assay: as above; conditions: 250 g ai/ha, Flood, applied to paddy water, evaluated after 13 days
How it was run: as §1

[3] = tested on: sedge, umbrella (small-flower umbrella sedge, Cyperus difformis); assay: as above; conditions: 250 g ai/ha, Flood, applied to paddy water, evaluated after 13 days
How it was run: as §1

[4] = tested on: barnyardgrass (Echinochloa crus-galli); assay: Test A postemergence application, visual injury rating 0-100; conditions: 10 days
How it was run: (§2)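 Preemergence directed soil spray or postemergence spray (2-10 cm, 1-2 leaf); loam/sand mix; compound in non-phytotoxic solvent + surfactant. Greenhouse, 10 d. Visual injury vs untreated, 0 = none, 100 = complete control.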

[5] = tested on: ragweed (common ragweed, Ambrosia artemisiifolia); assay: as above; conditions: 10 days
How it was run: as §2

soybean (Glycine max) [6] = assay: as above; conditions: 10 days
How it was run: as §2

[7] = tested on: ryegrass, Italian (italian ryegrass, Lolium multiflorum); assay: as above; conditions: 10 days
How it was run: as §2

[8] = tested on: horseweed (Erigeron canadensis); assay: as above; conditions: 10 days
How it was run: as §2

kochia (Bassia scoparia) [9] = assay: as above; conditions: 10 days
How it was run: as §2

[10] = tested on: oat, wild (wild oat, Avena fatua); assay: as above; conditions: 10 days
How it was run: as §2

[11] = tested on: green foxtail (Setaria viridis); assay: as above; conditions: 10 days
How it was run: as §2

[12] = tested on: wheat (Triticum aestivum); assay: as above; conditions: 10 days
How it was run: as §2

[13] = tested on: blackgrass (Alopecurus myosuroides); assay: as above; conditions: 10 days
How it was run: as §2

[14] = tested on: palmer (palmer amaranth, palmer pigweed, Amaranthus palmeri); assay: as above; conditions: 10 days
How it was run: as §2

corn (Zea mays) [15] = assay: as above; conditions: 10 days
How it was run: as §2

[16] = tested on: barnyardgrass (Echinochloa crus-galli); assay: Test A preemergence soil spray, visual injury rating 0-100; conditions: 10 days, 0 = no effect, 100 = complete control
How it was run: as §2

[17] = tested on: ragweed (common ragweed, Ambrosia artemisiifolia); assay: as above; conditions: 10 days, 0 = no effect, 100 = complete control
How it was run: as §2

soybean (Glycine max) [18] = assay: as above; conditions: 10 days, 0 = no effect, 100 = complete control
How it was run: as §2

[19] = tested on: ryegrass, Italian (italian ryegrass, Lolium multiflorum); assay: as above; conditions: 10 days, 0 = no effect, 100 = complete control
How it was run: as §2

kochia (Bassia scoparia) [20] = assay: as above; conditions: 10 days, 0 = no effect, 100 = complete control
How it was run: as §2

[21] = tested on: oat, wild (wild oat, Avena fatua); assay: as above; conditions: 10 days, 0 = no effect, 100 = complete control
How it was run: as §2

[22] = tested on: green foxtail (Setaria viridis); assay: as above; conditions: 10 days, 0 = no effect, 100 = complete control
How it was run: as §2

[23] = tested on: wheat (Triticum aestivum); assay: as above; conditions: 10 days, 0 = no effect, 100 = complete control
How it was run: as §2

[24] = tested on: blackgrass (Alopecurus myosuroides); assay: as above; conditions: 10 days, 0 = no effect, 100 = complete control
How it was run: as §2

[25] = tested on: palmer (palmer amaranth, palmer pigweed, Amaranthus palmeri); assay: as above; conditions: 10 days, 0 = no effect, 100 = complete control
How it was run: as §2

corn (Zea mays) [26] = assay: as above; conditions: 10 days, 0 = no effect, 100 = complete control
How it was run: as §2

[27] = 31 g ai/ha, postemergence, 0 = no effect, 100 = complete control
[28] = Postemergence, 125 g ai/ha, 0 is no effect, 100 is complete control

CC(C)OC(=O)C1CCC(NC(=O)C2(C)CN(c3cc(F)cc(F)c3)C(=O)O2)C1 (centres unmarked) [Compound 12]
Plant response rating, Rice (0 to 100 scale, 0 is no effect and 100 is complete control) (rice (Oryza sativa)): 0 | Plant response rating, Ducksalad (0 to 100 scale, 0 is no effect and 100 is complete control) [1]: 0 | Plant response rating, Barnyardgrass (0 to 100 scale, 0 is no effect and 100 is complete control) [2]: 0 | Plant response rating, Sedge, Umbrella (0 to 100 scale, 0 is no effect and 100 is complete control) [3]: 0 | Barnyardgrass plant response rating (0-100) [4, 27]: 10 | Barnyardgrass plant response rating (0 to 100 scale) [4, 28]: 100 | Ragweed plant response rating (0-100) [5, 27]: 0 | Ragweed plant response rating (0 to 100 scale) [5, 28]: 0 | Soybean plant response rating (0-100) (soybean (Glycine max) [6]; [27]): 30 | Soybean plant response rating (0 to 100 scale) (soybean (Glycine max) [6]; [28]): 50 | Ryegrass, Italian plant response rating (0-100) [7, 27]: 60 | Ryegrass, Italian plant response rating (0 to 100 scale) [7, 28]: 80 | Horseweed plant response rating (0-100) [8, 27]: 0 | Horseweed plant response rating (0 to 100 scale) [8, 28]: 10 | Kochia plant response rating (0-100) (kochia (Bassia scoparia) [9]; [27]): 20 | Kochia plant response rating (0 to 100 scale) (kochia (Bassia scoparia) [9]; [28]): 80 | Oat, Wild plant response rating (0-100) [10, 27]: 80 | Oat, Wild plant response rating (0 to 100 scale) [10, 28]: 90 | Foxtail, Green plant response rating (0-100) [11, 27]: 20 | Foxtail, Green plant response rating (0 to 100 scale) [11, 28]: 60 | Wheat plant response rating (0-100) [12, 27]: 50 | Wheat plant response rating (0 to 100 scale) [12, 28]: 60 | Blackgrass plant response rating (0-100) [13, 27]: 50 | Blackgrass plant response rating (0 to 100 scale) [13, 28]: 80 | Amaranth, Palmer plant response rating (0-100) [14, 27]: 0 | Amaranth, Palmer / Pigweed, Palmer plant response rating (0 to 100 scale) [14, 28]: 20 | Corn plant response rating (0-100) (corn (Zea mays) [15]; [27]): 20 | Corn plant response rating (0 to 100 scale) (corn (Zea mays) [15]; [28]): 50 | Barnyardgrass plant response rating (0-100) ([16]; 31 g ai/ha): 0 | Barnyardgrass plant response rating (0 to 100 scale) ([16]; 125 g ai/ha): 90 | Ragweed plant response rating (0-100) ([17]; 31 g ai/ha): 0 | Ragweed plant response rating (0 to 100 scale) ([17]; 125 g ai/ha): 0 | Soybean plant response rating (0-100) (soybean (Glycine max) [18]; 31 g ai/ha): 10 | Soybean plant response rating (0 to 100 scale) (soybean (Glycine max) [18]; 125 g ai/ha): 0 | Ryegrass, Italian plant response rating (0-100) ([19]; 31 g ai/ha): 0 | Ryegrass, Italian plant response rating (0 to 100 scale) ([19]; 125 g ai/ha): 90 | Kochia plant response rating (0-100) (kochia (Bassia scoparia) [20]; 31 g ai/ha): 20 | Kochia plant response rating (0 to 100 scale) (kochia (Bassia scoparia) [20]; 125 g ai/ha): 70 | Oat, Wild plant response rating (0-100) ([21]; 31 g ai/ha): 0 | Oat, Wild plant response rating (0 to 100 scale) ([21]; 125 g ai/ha): 90 | Foxtail, Green plant response rating (0-100) ([22]; 31 g ai/ha): 0 | Foxtail, Green plant response rating (0 to 100 scale) ([22]; 125 g ai/ha): 50 | Wheat plant response rating (0-100) ([23]; 31 g ai/ha): 50 | Wheat plant response rating (0 to 100 scale) ([23]; 125 g ai/ha): 90 | Blackgrass plant response rating (0-100) ([24]; 31 g ai/ha): 20 | Blackgrass plant response rating (0 to 100 scale) ([24]; 125 g ai/ha): 80 | Amaranth, Palmer plant response rating (0-100) ([25]; 31 g ai/ha): 0 | Amaranth, Palmer plant response rating (0 to 100 scale) ([25]; 125 g ai/ha): 0 | Corn plant response rating (0-100) (corn (Zea mays) [26]; 31 g ai/ha): 0 | Corn plant response rating (0 to 100 scale) (corn (Zea mays) [26]; 125 g ai/ha): 50
